Patent US20100317524A1, “Sulfonylureas” (Bayer CropScience AG, priority 2005, published 2010)

Tests used:
[1] = system: weed plants such as Sinapis alba, Chrysanthemum segetum, Avena sativa, Stellaria media, Echinochloa crus-galli, Lolium multiflorum, Setaria viridis, Abutilon …; experiment: Pre-emergence effect on weeds (greenhouse pot test, visual scoring); format: in vivo; conditions: applied pre-emergence at a rate of 0.3 kg or less of active substance per hectare; visual scoring after 3 to 4 weeks vs untreated controls
[2] = system: weed plants such as Sinapis alba, Echinochloa crus-galli, Lolium multiflorum, Chrysanthemum segetum, Setaria viridis, Abutilon theophrasti, Amaranthus …; experiment: Post-emergence effect on weeds (greenhouse pot test, visual scoring); format: in vivo; conditions: applied post-emergence (three-leaf stage) at a rate of 0.3 kg or less of active substance per hectare; visual scoring after about 3 to 4 weeks vs untreated controls

Row | Compound | herbicidal action against weed plants, pre-emergence [1] | herbicidal action against weed plants, post-emergence [2]
1 | CCCCOc1cccc(I)c1S(=O)(=O)NC(=O)Nc1nc(C)cc(C)n1 [Compound 1.554] | very good herbicidal action | very good herbicidal action
2 | CCCCOc1cccc(I)c1S(=O)(=O)NC(=O)Nc1nc(Cl)cc(OC)n1 [Compound 1.555] | very good herbicidal action | very good herbicidal action
3 | CCCCOc1cccc(I)c1S(=O)(=O)NC(=O)Nc1nc(OC)nc(OC)n1 [Compound 1.556] | very good herbicidal action | very good herbicidal action
4 | CCC(C)Oc1cccc(I)c1S(=O)(=O)NC(=O)Nc1nc(C)nc(OC)n1 (stereo not drawn) [Compound 1.557] | very good herbicidal action | very good herbicidal action
5 | CCC(C)Oc1cccc(I)c1S(=O)(=O)NC(=O)Nc1nc(C)cc(C)n1 (stereo not drawn) [Compound 1.558] | very good herbicidal action | very good herbicidal action
6 | CCC(C)Oc1cccc(I)c1S(=O)(=O)NC(=O)Nc1nc(OC)nc(OC)n1 (stereo not drawn) [Compound 1.560] | very good herbicidal action | very good herbicidal action
7 | COc1cc(Cl)nc(NC(=O)NS(=O)(=O)c2c(I)cccc2OCC(C)C)n1 [Compound 1.563] | very good herbicidal action | very good herbicidal action
8 | COc1cc(OC)nc(NC(=O)NS(=O)(=O)c2c(OC)ccc(Cl)c2I)n1 [Compound 1.598] | very good herbicidal action | very good herbicidal action
9 | COc1nc(C)nc(NC(=O)NS(=O)(=O)c2c(OC)ccc(Cl)c2I)n1 [Compound 1.599] | very good herbicidal action | very good herbicidal action
10 | COc1ccc(Cl)c(I)c1S(=O)(=O)NC(=O)Nc1nc(C)cc(C)n1 [Compound 1.600] | very good herbicidal action | very good herbicidal action
11 | COc1cc(Cl)nc(NC(=O)NS(=O)(=O)c2c(OC)ccc(Cl)c2I)n1 [Compound 1.601] | very good herbicidal action | very good herbicidal action
12 | COc1nc(NC(=O)NS(=O)(=O)c2c(OC)ccc(Cl)c2I)nc(OC)n1 [Compound 1.602] | very good herbicidal action | very good herbicidal action
